The target in the experiment is rat nNOS (Rattus norvegicus, UniProt P29476). Particulars: compared with (R,R)-16a, (S,S)-16b and (R)-6b.

`Cc1cc(N)nc(COC[C@@H](N)[C@H](C)OCc2cc(C)cc(N)n2)c1` [(S,R)-16c]: the “decreased affinity for nNOS” value stood at 10 fold.

Source of the values: paper PMC3790268 (Bioorganic & medicinal chemistry letters, 2013).
